Measurements as given in US20110159088A1, “ORAL PHARMACEUTICAL FOR BASED ON AT LEAST ONE ACTIVE PRINCIPLE WHOSE SOLUBILITY VARIES AS A FUNCTION OF THE GASTRIC pH CONDITIONS” (Flamel Technologies, S.A., priority 2005, published 2011).
In brackets after ≈: the same amount, converted by molar mass.

Test: physchem
Assay type: physicochemical
Conditions: 37 °C
Procedure: This solubility is measured in an aqueous medium at 37° C., maintained at the pH under consideration. The solubility of Irbesartan varies greatly in the gastric pH range: The solubility of Eprosartan varies greatly in the gastric pH range: The solubility of Acyclovir varies greatly in the gastric pH range: […]

[1] = pH 1.2, simulated gastric fluid

SMILES | solubility [1] | solubility (pH 2, simulated gastric fluid) | solubility (pH 2.5, aqueous buffer) | solubility (pH 4.5, aqueous buffer) | solubility (pH 6.8, aqueous buffer) | solubility (pH 3, aqueous buffer) | solubility (pH 5.5, aqueous buffer)
Nc1nc2c(ncn2COCCO)c(=O)[nH]1 [Acyclovir] | 10500 µg/mL (≈ 46600 µM) | 6000 µg/mL (≈ 26600 µM) | 3300 µg/mL (≈ 14700 µM) | 2600 µg/mL (≈ 11500 µM) | 2500 µg/mL (≈ 11100 µM) | – | –
CCCCc1ncc(/C=C(\Cc2cccs2)C(=O)O)n1Cc1ccc(C(=O)O)cc1 [Eprosartan] | 795 µg/mL (≈ 1870 µM) | 142 µg/mL (≈ 334 µM) | – | 18 µg/mL (≈ 42.4 µM) | 1190 µg/mL (≈ 2810 µM) | 33 µg/mL (≈ 77.7 µM) | 15 µg/mL (≈ 35.3 µM)
CCCCC1=NC2(CCCC2)C(=O)N1Cc1ccc(-c2ccccc2-c2nnn[nH]2)cc1 [Irbesartan] | 2420 µg/mL (≈ 5650 µM) | 362 µg/mL (≈ 845 µM) | – | 20 µg/mL (≈ 46.7 µM) | 666 µg/mL (≈ 1550 µM) | 48 µg/mL (≈ 112 µM) | 65 µg/mL (≈ 152 µM)
